Format in all cases: functional, cell-based
One experiment has as its system HEL. As to the kind of experiment: Antiproliferative activity against HEL cells after 72 hrs by MTT assay. The following applies: Homo sapiens.
Another experiment concerns K562. In words: Antiproliferative activity against human K562 cells after 72 hrs by MTT assay. The note with it: K562, 72 h.
Another experiment concerns HeLa. As to the kind of experiment: Antiproliferative activity against human HeLa cells after 72 hrs by MTT assay.
Another experiment deals with MCF7. As to the kind of experiment: Antiproliferative activity against human MCF7 cells after 72 hrs by MTT assay. The following applies: MCF7, 72 h.
Another experiment has as its system A549. As to the kind of experiment: Antiproliferative activity against human A549 cells after 72 hrs by MTT assay. The following applies: A549, 72 h.

Our source for the IC50 values is ChEMBL document CHEMBL4382259, “Synthesis of novel guttiferone E and xanthochymol derivatives with cytotoxicities by inducing cell apoptosis and arresting the cell cycle phase” (Eur J Med Chem, 2019).

SMILES strings stand for the structures.

As to `CCCCCC(=O)Oc1ccc(C(=O)C2=C3OC(C)(C)[C@@H](CC=C(C)C)C[C@@]34C[C@@H](CC=C(C)C)C(C)(C)[C@H]3CCC(C)(C)O[C@]34OC2=O)cc1OC(=O)CCCCC`, the IC50 in the experiment on HEL was 19.9 µM; in the experiment on K562, above 20 µM; in the experiment on HeLa, 15.4 µM; in the experiment on MCF7, 16.6 µM; with A549, 19.2 µM.

For `COc1ccc(C(=O)C2=C3OC(C)(C)[C@@H](CC=C(C)C)C[C@@]34C[C@@H](CC=C(C)C)C(C)(C)[C@@](CC=C(C)C)(C2=O)C4=O)cc1OC`, the half-inhibitory concentration (IC50) in the experiment on HEL was above 20 µM; in the experiment on K562, above 20 µM; in the experiment with HeLa, 19.7 µM; with MCF7, above 20 µM; in the experiment on A549, above 20 µM.

For the molecule `CC(=O)Oc1ccc(C(=O)C2=C3OC(C)(C)[C@@H](CC=C(C)C)C[C@@]34C[C@@H](CC=C(C)C)C(C)(C)[C@H]3CCC(C)(C)O[C@]34OC2=O)cc1OC(C)=O`, the IC50 with HEL was above 20 µM; in the experiment on K562 it was above 20 µM; with HeLa, 5.32 µM; in the experiment with MCF7, 4.83 µM; in the experiment with A549 it was 12.3 µM.

On to `C#CCOc1ccc(C(=O)C2=C3OC(C)(C)[C@@H](CC=C(C)C)C[C@@]34C[C@@H](CC=C(C)C)C(C)(C)[C@@](CC=C(C)C)(C2=O)C4=O)cc1OCC#C`, for which the IC50 in the experiment on HEL is 8.89 µM; in the experiment on K562, 17.6 µM; with HeLa it was above 20 µM; in the experiment with MCF7, above 20 µM; with A549, above 20 µM.

As to `C=CCOc1ccc(C(=O)C2=C3OC(C)(C)[C@@H](CC=C(C)C)C[C@@]34C[C@@H](CC=C(C)C)C(C)(C)[C@@](CC=C(C)C)(C2=O)C4=O)cc1OCC=C`, the IC50 in the experiment on HEL was above 20 µM; with K562 it was above 20 µM; in the experiment with HeLa it was 15.8 µM; with MCF7, above 20 µM; with A549, above 20 µM.

For the molecule `CCC(=O)Oc1ccc(C(=O)C2=C3OC(C)(C)[C@@H](CC=C(C)C)C[C@@]34C[C@@H](CC=C(C)C)C(C)(C)[C@H]3CCC(C)(C)O[C@]34OC2=O)cc1OC(=O)CC`, the 50% inhibitory concentration (IC50) in the experiment with HEL is 9.52 µM; in the experiment with K562, above 20 µM; in the experiment with HeLa it was 15.4 µM; in the experiment on MCF7 it was above 20 µM; in the experiment with A549 it was above 20 µM.

For the molecule `CC(C)=CC[C@H]1C[C@@]23C[C@@H](CC=C(C)C)C(C)(C)[C@@](CC=C(C)C)(C(=O)C(C(=O)c4ccc(OCc5ccccc5)c(O)c4)=C2OC1(C)C)C3=O`, the concentration for half-maximal inhibition (IC50) in the experiment with HEL is above 20 µM; in the experiment on K562, above 20 µM; in the experiment on HeLa it was 15.9 µM; in the experiment with MCF7, above 20 µM; with A549 it was 10.6 µM.

In the case of `CC(C)=CC[C@H]1C[C@@]23C[C@@H](CC=C(C)C)C(C)(C)[C@@](CC=C(C)C)(C(=O)C(C(=O)c4ccc(OCCCCCBr)c(O)c4)=C2OC1(C)C)C3=O`, the IC50 in the experiment on HEL was above 20 µM; in the experiment on K562, above 20 µM; in the experiment with HeLa, 15.5 µM; in the experiment on MCF7 it was 9.29 µM; in the experiment with A549, above 20 µM.

For `CCCCCCCC(=O)Oc1ccc(C(=O)C2=C3OC(C)(C)[C@@H](CC=C(C)C)C[C@@]34C[C@@H](CC=C(C)C)C(C)(C)[C@H]3CCC(C)(C)O[C@]34OC2=O)cc1OC(=O)CCCCCCC`, the 50% inhibitory concentration (IC50) in the experiment on HEL, in the experiment with K562, in the experiment with HeLa, in the experiment with MCF7 and with A549 was above 20 µM throughout.

For the molecule `C#CCOc1ccc(C(=O)C2=C3OC(C)(C)[C@@H](CC=C(C)C)C[C@@]34C[C@@H](CC=C(C)C)C(C)(C)[C@@](CC=C(C)C)(C2=O)C4=O)cc1O`, the IC50 with HEL, in the experiment with K562, in the experiment on HeLa, in the experiment on MCF7 and in the experiment on A549 was above 20 µM each time.

Take `CC(C)=CC[C@H]1C[C@@]23C[C@@H](CC=C(C)C)C(C)(C)[C@@](CC=C(C)C)(C(=O)C(C(=O)c4ccc(OCCCCCN5CCOCC5)c(O)c4)=C2OC1(C)C)C3=O`: the IC50 is above 20 µM with HEL; above 20 µM in the experiment on K562; above 20 µM in the experiment with HeLa; 16 µM with MCF7; above 20 µM in the experiment with A549.

Take `CC(C)=CC[C@H]1C[C@@]23C[C@@H](CC=C(C)C)C(C)(C)[C@@](CC=C(C)C)(C(=O)C(C(=O)c4ccc(OCCCCCBr)c(OCCCCCBr)c4)=C2OC1(C)C)C3=O`: the half-inhibitory concentration (IC50) in the experiment with HEL, with K562, with HeLa, with MCF7 and in the experiment on A549 was above 20 µM each time.

Take `CC(C)=CCOc1ccc(C(=O)C2=C3OC(C)(C)[C@@H](CC=C(C)C)C[C@@]34C[C@@H](CC=C(C)C)C(C)(C)[C@@](CC=C(C)C)(C2=O)C4=O)cc1O`: the IC50 was above 20 µM with HEL; above 20 µM with K562; 12.2 µM with HeLa; 18.6 µM in the experiment with MCF7; above 20 µM in the experiment with A549.

On to `CC(C)=CC[C@H]1C[C@@]23C[C@@H](CC=C(C)C)C(C)(C)[C@@](CC=C(C)C)(C(=O)C(C(=O)c4ccc(O)c(O)c4)=C2OC1(C)C)C3=O` [CAMBOGIN], for which the IC50 was 9.24 µM with HEL; 14.1 µM in the experiment with K562; 16.5 µM in the experiment on HeLa; 10.2 µM in the experiment on MCF7; 19.2 µM in the experiment on A549.

`COc1ccc(C(=O)C2=C3OC(C)(C)[C@@H](CC=C(C)C)C[C@@]34C[C@@H](CC=C(C)C)C(C)(C)[C@@](CC=C(C)C)(C2=O)C4=O)cc1O`: the half-maximal inhibitory concentration (IC50) in the experiment on HEL was 13.4 µM; with K562, 14.5 µM; in the experiment on HeLa, 10.9 µM; in the experiment on MCF7 it was above 20 µM; in the experiment on A549 it was above 20 µM.

On to `CC(C)=CC[C@H]1C[C@@]23C[C@@H](CC=C(C)C)C(C)(C)[C@@](CC=C(C)C)(C(=O)C(C(=O)c4ccc(OCc5ccccc5)c(OCc5ccccc5)c4)=C2OC1(C)C)C3=O`, for which the half-maximal inhibitory concentration (IC50) with HEL was above 20 µM; in the experiment with K562, above 20 µM; with HeLa, 10.6 µM; in the experiment on MCF7, 15.1 µM; with A549, above 20 µM.

For `C=CCOc1ccc(C(=O)C2=C3OC(C)(C)[C@@H](CC=C(C)C)C[C@@]34C[C@@H](CC=C(C)C)C(C)(C)[C@@](CC=C(C)C)(C2=O)C4=O)cc1O`, the IC50 was above 20 µM with HEL; above 20 µM with K562; 15 µM in the experiment with HeLa; 11.5 µM in the experiment with MCF7; above 20 µM in the experiment on A549.

For `CC(C)=CC[C@H]1C[C@@]23C[C@@H](CC=C(C)C)C(C)(C)[C@@](CC=C(C)C)(C(=O)C(C(=O)c4ccc(OS(=O)(=O)c5ccc(C)cc5)c(OS(=O)(=O)c5ccc(C)cc5)c4)=C2OC1(C)C)C3=O`, the IC50 with HEL is above 20 µM; in the experiment with K562, above 20 µM; in the experiment with HeLa, 6.25 µM; in the experiment with MCF7, 3.15 µM; in the experiment with A549, 9.53 µM.

As to `CC(C)=CC[C@H]1C[C@@]23C[C@@H](CC=C(C)C)C(C)(C)[C@@](CC=C(C)C)(C(=O)C(C(=O)c4ccc(O)c(OC(=O)c5cccs5)c4)=C2OC1(C)C)C3=O`, the IC50 with HEL is 9.56 µM; with K562 it was 13.9 µM; in the experiment on HeLa, 10.8 µM; in the experiment with MCF7 it was above 20 µM; in the experiment with A549, above 20 µM.

As to `CC(C)=CC[C@H]1C[C@]23C[C@@H](CC=C(C)C)C(C)(C)[C@H]4CCC(C)(C)O[C@]42OC(=O)C(C(=O)c2ccc(OC(=O)c4ccccc4)c(OC(=O)c4ccccc4)c2)=C3OC1(C)C`, the IC50 with HEL, in the experiment with K562, in the experiment on HeLa, in the experiment with MCF7 and with A549 was above 20 µM in each case.

For `CC(C)=CC[C@H]1C[C@]23C[C@@H](CC=C(C)C)C(C)(C)[C@H]4CCC(C)(C)O[C@]42OC(=O)C(C(=O)c2ccc(OC(=O)c4ccc(Br)cc4)c(OC(=O)c4ccc(Br)cc4)c2)=C3OC1(C)C`, the IC50 with HEL, in the experiment with K562, in the experiment on HeLa, in the experiment on MCF7 and with A549 was above 20 µM throughout.
